Assay: High fat diet induced obesity (DIO) mouse model
Format: in vivo, C57CL/6J mice
Conditions: for NSAH (sum): liver pathology; for Total Body Weight: DIO mice (Table 52); for Total Body Weight / Body Weight: in g (unit assumed)
Method: C57CL/6J mice aged 4-6 weeks (Korea Research Institute of Bioscience & Biotechnology, Ohchang, Korea) were housed in Polycarbonate cages (five mice per cage) in a room with a 12 hr:12 hr light-dark cycle and an ambient temperature of 24° C. All the mice were fed a commercial chow diet for 1 week after arrival in the animal facility. Mice were then divided into normal and obesity groups and fed with normal diet (ND) and high fat diets (HFD) respectively. The HFD group was divided into multiple treatment groups: a high fat diet vehicle group (HFD), an orlistat (purchased as OTC drug Alli®) positive control treatment group (ORI, 40 mg/kg of animal weight, 2 times/day) and optionally a sibutramine positive control treatment group (10 mg/kg, 1 time/day). The HFD contained 340 g of fat/kg of HFD (310 g lard plus 30 g soybean oil; Harlan Laboratories, USA). The HFD was formulated to provide 60% of the total energy generated by the diet from fat by replacing carbohydrate energy with lard and soybean oil, whereas the normal diet (ND) group was fed a diet providing only 18% of the total diet energy from fat(Harlan Laboratories, USA).
Body weight was measured once each week and feed intake was measured twice per week. At the end of the experimental period, following a 12 hr. fasting period, the animals were anesthetized with ether, and blood was drawn from the abdominal vein. Liver and kidney and adipose tissues (epididymal, retroperitoneal, perirenal adipose tissues) were removed from each animal, rinsed with physiological saline, and weighed. Serum concentrations of glucose, total cholesterol, triglycerides, and LDL-cholesterol were determined using automatic analyzer (INTEGRA 400, Roche, Germany). Statistical significance of test results was measured using the Student's t-test.

[1] = DIO mice blood biochemistry, SIB 10 mg/kg, ORI 40 mg/kg, Mutamba extract 32 (G1) 1000 mg/kg, mean
[2] = DIO mice blood biochemistry, SIB 10 mg/kg, ORI 40 mg/kg, Mutamba extract 33-2 G1 1000 mg/kg, mean
[3] = DIO mice liver pathology score, SIB 10 mg/kg, ORI 40 mg/kg, Mutamba extract 32 (G1) 1000 mg/kg, mean
[4] = DIO mice, SIB 10 mg/kg, ORI 40 mg/kg, Mutamba extract 32 (G1) 1000 mg/kg, mean
[5] = DIO mice, SIB 10 mg/kg, ORI 40 mg/kg, Mutamba extract 33-2 G1 1000 mg/kg, mean
[6] = DIO mice, combination (1:1) 2000 mg/kg twice a day, group mean
[7] = liver pathology score, mice fed a high fat diet, Mutamba fractions 250 mg/kg oral 2 times per day, mean
[8] = liver pathology score, mice fed a high fat diet, Mutamba fractions 250 mg/kg oral 2 times per day, mean (table printed twice)
[9] = mice fed a high fat diet, Mutamba fractions 250 mg/kg oral 2 times per day, mean
[10] = sibutramine 10 mg/kg, 1 time/day
[11] = sibutramine 10 mg/kg, 1 time/day, listed as Sibutramine
[12] = week 1, mice fed a high fat diet, Mutamba fractions 250 mg/kg oral 2 times per day, mean
[13] = week 2, mice fed a high fat diet, Mutamba fractions 250 mg/kg oral 2 times per day, mean
[14] = week 3, mice fed a high fat diet, Mutamba fractions 250 mg/kg oral 2 times per day, mean
[15] = week 4, mice fed a high fat diet, Mutamba fractions 250 mg/kg oral 2 times per day, mean
[16] = week 5, mice fed a high fat diet, Mutamba fractions 250 mg/kg oral 2 times per day, mean
[17] = week 6, mice fed a high fat diet, Mutamba fractions 250 mg/kg oral 2 times per day, mean
[18] = week 7, mice fed a high fat diet, Mutamba fractions 250 mg/kg oral 2 times per day, mean
[19] = week 8, mice fed a high fat diet, Mutamba fractions 250 mg/kg oral 2 times per day, mean

## CC(C)CC(N(C)C)C1(c2ccc(Cl)cc2)CCC1 (stereo not shown) [SIB, sibutramine]
[1]
  ALT: 37.00 U/L
  AST: 65.95 U/L
  HDL-C: 68.73 mg/dL
  LDL-C: 6.18 mg/dL
  T-chol: 155.75 mg/dL
  TG: 49.75 mg/dL
[2]
  LDL-C: 5.26 mg/dL
  T-chol: 158.60 mg/dL
  TG: 46.60 mg/dL
[3]
  Hepatocellular ballooning (0-2): 0.25
  Lobular Inflammation (0-3): 0.50
  Steatosis (0-3): 0.50
DIO mice liver pathology, sum of scores, SIB 10 mg/kg, ORI 40 mg/kg, Mutamba extract 32 (G1) 1000 mg/kg, mean
  NASH (sum): 1.25
DIO mice, 2-week, Compositions 1, 2 1300 mg/kg/day, 3, 9 1700 mg/kg/day, orlistat 40 mg/kg 2 times/day, sibutramine 10 mg/kg 1 time/day
  Weight Gain 2-week: −1.40
DIO mice, 2-week, doses as in Example 76
  Average Feed Intake 2-week: 2.87
DIO mice, 2 weeks, Mean, Weight Gain (g/day)/Feed Intake (g/day)
  Food Efficiency Ratio (FER) 2 weeks: −0.099
DIO mice, 7-week, Compositions 1, 2 1300 mg/kg/day, 3, 9 1700 mg/kg/day, orlistat 40 mg/kg 2 times/day, sibutramine 10 mg/kg 1 time/day
  Weight Gain 7-week: 6.12
DIO mice, 7-week, doses as in Example 76
  Average Feed Intake 7-week: 2.67
DIO mice, 7 weeks, Mean, Weight Gain (g/day)/Feed Intake (g/day)
  Food Efficiency Ratio (FER) 7 weeks: 0.054
DIO mice, FER = body weight gain (g/day)/food intake (g/day), SIB 10 mg/kg, ORI 40 mg/kg, Mutamba extract 32 (G1) 1000 mg/kg, mean
  Food Efficiency Ratio (FER): 0.008
DIO mice, FER = body weight gain (g/day)/food intake (g/day), SIB 10 mg/kg, ORI 40 mg/kg, Mutamba extract 33-2 G1 1000 mg/kg, mean
  Food Efficiency Ratio (FER): 0.043
[4]
  Average Body Weight Gain: 0.021 g/day
  Average Food Intake: 2.724 g/day
[5]
  Body Weight Gain: 0.114 g/day
  Food Intake: 2.624 g/day
DIO mice, combination (1:1) 2000 mg/kg twice a day, FER = body weight gain/food intake
  FER (Food efficiency ratio): −0.014
[6]
  Food Intake: 3.564 g/day
  Weight Gain: -0.051 g/day
[7]
  Hepatocellular ballooning (0-2): 0.40
  Lobular Inflammation (0-3): 1.60
  Steatosis (0-3): 1.20
[8]
  Hepatocellular ballooning (0-2): 0.40
  Lobular Inflammation (0-3): 1.60
  Steatosis (0-3): 1.20
Sum of scores, mice fed a high fat diet, Mutamba fractions 250 mg/kg oral 2 times per day, mean
  NSAH (sum): 3.20
Sum of scores, mice fed a high fat diet, Mutamba fractions 250 mg/kg oral 2 times per day, mean (table printed twice)
  NSAH (sum): 3.20
Mice fed a high fat diet, FER = body weight gain (g/day)/food intake (g/day), Mutamba fractions 250 mg/kg oral 2 times per day, mean
  FER (Food efficiency ratio): 0.043
[9]
  Body Weight Gain: 0.114 g/day
  Food Intake: 2.624 g/day
[10]
  blood biochemistry parameters vs HFD group: statistically significant decrease in LDL-cholesterol
  body weight gain vs HFD group: statistically significant decreases in body weight gain across all weeks of the study
  liver pathology (NASH score) vs HFD group: statistically significant decreases in Steatosis, Lobular inflammation, Hepatocellular ballooning and NASH score
  total body weight vs HFD group: statistically significant decreases in total body weight from week 1, 2, 3 and 7
  weight gain per day, food intake per day, food efficiency ratio (FER) vs HFD group: average body weight gain per day and food efficiency ratio (FER) endpoints were significantly lowered
[11]
  body weight gain vs HFD group: did not
  weight gain per day, food intake per day, food efficiency ratio (FER) vs HFD group: statistically significant reduction of average food intake after 7 weeks of treatment
Sibutramine 10 mg/kg, 1 time/day, listed as sibutramine
  weight gain per day, food intake per day, food efficiency ratio (FER) vs HFD group: not statistically significant
Week 0, SIB 10 mg/kg
  Total Body Weight: 39.70
Week 0, mice fed a high fat diet, Mutamba fractions 250 mg/kg oral 2 times per day, mean
  Body Weight: 38.41
Week 1, DIO mice, SIB 10 mg/kg, ORI 40 mg/kg, Mutamba extract 32 (G1) 1000 mg/kg/day oral, mean
  Body Weight Gain: −5.46
Week 1, DIO mice, SIB 10 mg/kg, ORI 40 mg/kg, Mutamba extract 33-2 G1 1000 mg/kg, mean
  Body Weight Gain: −2.72
Week 1, DIO mice, combination (1:1) 2000 mg/kg twice a day, group mean
  Weight Gain: −3.63
Week 1, DIO mice, combination (10:1) 1100 mg/kg twice a day, group mean
  Weight Gain: −3.63
Week 1, SIB 10 mg/kg
  Total Body Weight: 34.24
[12]
  Body Weight Gain: −2.72
  Body Weight: 35.69
Week 2, DIO mice, SIB 10 mg/kg, ORI 40 mg/kg, Mutamba extract 32 (G1) 1000 mg/kg/day oral, mean
  Body Weight Gain: −4.84
Week 2, DIO mice, SIB 10 mg/kg, ORI 40 mg/kg, Mutamba extract 33-2 G1 1000 mg/kg, mean
  Body Weight Gain: −2.39
Week 2, DIO mice, combination (1:1) 2000 mg/kg twice a day, group mean
  Weight Gain: −5.37
Week 2, DIO mice, combination (10:1) 1100 mg/kg twice a day, group mean
  Weight Gain: −5.37
Week 2, SIB 10 mg/kg
  Total Body Weight: 33.96
[13]
  Body Weight Gain: −2.39
  Body Weight: 36.03
Week 3, DIO mice, SIB 10 mg/kg, ORI 40 mg/kg, Mutamba extract 32 (G1) 1000 mg/kg/day oral, mean
  Body Weight Gain: −2.75
Week 3, DIO mice, SIB 10 mg/kg, ORI 40 mg/kg, Mutamba extract 33-2 G1 1000 mg/kg, mean
  Body Weight Gain: −0.39
Week 3, DIO mice, combination (1:1) 2000 mg/kg twice a day, group mean
  Weight Gain: −4.69
Week 3, DIO mice, combination (10:1) 1100 mg/kg twice a day, group mean
  Weight Gain: −4.69
Week 3, SIB 10 mg/kg
  Total Body Weight: 36.05
[14]
  Body Weight Gain: −0.39
  Body Weight: 38.02
Week 4, DIO mice, SIB 10 mg/kg, ORI 40 mg/kg, Mutamba extract 32 (G1) 1000 mg/kg/day oral, mean
  Body Weight Gain: −2.17
Week 4, DIO mice, SIB 10 mg/kg, ORI 40 mg/kg, Mutamba extract 33-2 G1 1000 mg/kg, mean
  Body Weight Gain: 1.47
Week 4, DIO mice, combination (1:1) 2000 mg/kg twice a day, group mean
  Weight Gain: −4.82
Week 4, DIO mice, combination (10:1) 1100 mg/kg twice a day, group mean
  Weight Gain: −4.82
Week 4, SIB 10 mg/kg
  Total Body Weight: 36.64
[15]
  Body Weight Gain: 1.47
  Body Weight: 39.89
Week 5, DIO mice, SIB 10 mg/kg, ORI 40 mg/kg, Mutamba extract 32 (G1) 1000 mg/kg/day oral, mean
  Body Weight Gain: −1.38
Week 5, DIO mice, SIB 10 mg/kg, ORI 40 mg/kg, Mutamba extract 33-2 G1 1000 mg/kg, mean
  Body Weight Gain: 2.54
Week 5, DIO mice, combination (1:1) 2000 mg/kg twice a day, group mean
  Weight Gain: −4.25
Week 5, DIO mice, combination (10:1) 1100 mg/kg twice a day, group mean
  Weight Gain: −4.25
Week 5, SIB 10 mg/kg
  Total Body Weight: 37.42
[16]
  Body Weight Gain: 2.54
  Body Weight: 40.95
Week 6, DIO mice, SIB 10 mg/kg, ORI 40 mg/kg, Mutamba extract 32 (G1) 1000 mg/kg/day oral, mean
  Body Weight Gain: −0.27
Week 6, DIO mice, SIB 10 mg/kg, ORI 40 mg/kg, Mutamba extract 33-2 G1 1000 mg/kg, mean
  Body Weight Gain: 3.99
Week 6, DIO mice, combination (1:1) 2000 mg/kg twice a day, group mean
  Weight Gain: −3.90
Week 6, DIO mice, combination (10:1) 1100 mg/kg twice a day, group mean
  Weight Gain: −3.90
Week 6, SIB 10 mg/kg
  Total Body Weight: 38.54
[17]
  Body Weight Gain: 3.99
  Body Weight: 42.40
Week 7, DIO mice, SIB 10 mg/kg, ORI 40 mg/kg, Mutamba extract 32 (G1) 1000 mg/kg/day oral, mean
  Body Weight Gain: −0.06
Week 7, DIO mice, SIB 10 mg/kg, ORI 40 mg/kg, Mutamba extract 33-2 G1 1000 mg/kg, mean
  Body Weight Gain: 5.15
Week 7, DIO mice, combination (1:1) 2000 mg/kg twice a day, group mean
  Weight Gain: −2.27
Week 7, DIO mice, combination (10:1) 1100 mg/kg twice a day, group mean
  Weight Gain: −2.27
Week 7, SIB 10 mg/kg
  Total Body Weight: 38.74
[18]
  Body Weight Gain: 5.15
  Body Weight: 43.57
Week 8, DIO mice, SIB 10 mg/kg, ORI 40 mg/kg, Mutamba extract 32 (G1) 1000 mg/kg/day oral, mean
  Body Weight Gain: 1.15
Week 8, DIO mice, SIB 10 mg/kg, ORI 40 mg/kg, Mutamba extract 33-2 G1 1000 mg/kg, mean
  Body Weight Gain: 6.27
Week 8, SIB 10 mg/kg
  Total Body Weight: 39.95
[19]
  Body Weight Gain: 6.27
  Body Weight: 44.69

Reference: patent US20240024403A1, “Compositions and Methods for Managing Weight” (Unigen, Inc., priority 2012, published 2024)
